One data set deals with EBs. Description: In vitro 3-D embryo implantation model: attachment and outgrowth of EBs. The format is cell-based, human. The settings on record: for ability of attached EBs to give rise to all lineages: lineage induction studies, in presence of the compound; for degeneration, attachment and outgrowth of EBs in implantation model: high dose, 48 hrs. The source says:
An in vitro 3-dimensional (3-D) model/system for embryo implantation employing EBs in place of embryos was developed. The EBs collected on different days were subjected to implantation/attachment on the artificial substratum/surface.
To make this artificial surface regular tissue culture dishes or organ culture dishes were coated with about 1 to 2 mm thick coating of 0.5 to 1% low melting or high melting agarose in DPBS. A few wells of about 1 to 2 mm diameter are created using sterile paper disks, preferable in the center of the dish, which were removed after the agarose solidifies. Alternatively a horizontal tube like structure can be created by casting the gel over a fine glass capillary, which can be withdrawn as the agarose solidifies. This cavity/depression or tube like structure of agarose is then coated with matrix proteins like matrigel, collagen, fibronectin, laminin, gelatin etc. The coated agarose dishes were also layered with mouse or human endometrial stromal cells obtained from primary cultures or cell lines. The EBs were placed carefully in the cavity created or flushed inside the tube using a bent pasture pipette. The cells were cultured in normal standard EB media.
The EBs adhere and outgrows spreading out as a monolayer of cells on the extracellular matrix. Some cells invaded the surrounding agarose by day 10. A failure to implant/outgrow within ten days on this matrix after exposure to the drug/molecule indicates an abnormality. However, some drugs/could also support/enhance the process of attachment and outgrowth of the EBs. These molecules were screened for several other possible applications, though these may not necessarily be safe for embryonic development.
Four day old EBs were cultured on agarose and fibronectin coated surfaces. […] However, as Y27632 supports and enhances outgrowth, the effect of this drug on the expression profiles of the lineage markers and other genes needs to be screened for evaluating effect on normal development.
The model consists of a culture plate which is coated with Low melting (0.5%) agarose, A well of various depths is created in the agarose by various means eg: putting sterile filter paper disks while casting the gel and removing them latter. The gel is then coated with extracellular matrix components like fibronectin, collagen, laminin, etc. Human endometrial stromal fibroblast cell line CRL4003 is grown on this extracellular matrix as a monolayer. The spherical embryoid bodies or embryo like entities at day 4.5 are injected or pipetted into these cavities. The attachment is allowed in a culture media regularly used for hESC culture, without FGF2 supplementation (FIG. 1).
3. Lineage induction studies: The embryoid bodies after attachment to the implantation site differentiates to all lineages.
Method: Spherical Cytic EBs were collected on day 4.5 and exposed to the continuous presence of Y27632 (various doses were used). […] The control cytic EB had however just attached with smaller area of outgrowth showing that this dose of Y27632 can help in initial implantation of embryo during pregnancy.

The subject of another data set is HUES 9 EB. Description: Expression profiles of lineage, pluripotency, epigenetic and imprinted genes in day 4.5 spherical EBs (HUES 9). The format is cell-based, human. On the set-up: key: The sign ‘+’ indicates expression of the gene; the sign “−” indicates non-expression of the gene. The protocol:
RT-PCR: Total RNA from cells was isolated using TRIZOL-LS Reagent (Invitrogen) as per the manufacturer's protocol. Complementary DNA was synthesized using the SuperScript III First-Strand Synthesis System (Invitrogen) as per the manufacturer's instructions. Polymerase Chain Reaction (PCR) was carried out using 1U Tag DNA Polymerase (Sigma) and MgCl2 to a final concentration of 1.5 mM in a total volume of 25 μl/reaction. β-actin and GAPDH were used as the housekeeping controls. PCR cycles consisted of an initial denaturation at 95° C. for 5 minutes followed by 35 amplification cycles of denaturation at 94° C. for 45 seconds, annealing for 45 seconds, and extension at 72° C. for 45 seconds and final extension at 72° C. for 10 minutes.
Examples of changes in the expression profiles/patterns of lineage markers, pluripotency markers, epigenetic markers and imprinted genes, in day 4.5 spherical cavitating/cytic embryoid bodies upon exposure to compounds like lipopolysaccharide (LPS), Rho kinase inhibitor (Y27632), Azacytidine (Aza), and biologicals like an Uvomorulin antibody (UVO) are given in the table nos. 9-12 below. The sign ‘+’ indicates expression of the gene and the sign “−” indicates non-expression of the gene.

The mark [1] stands for this setting: HUES 9 EB DAY 4.5 RI (Y27632), control +.
Setting [2] is: HUES 9 EB DAY 4.5 RI (Y27632), control −.

Entries after “also recorded” stand apart in the source; their conditions may differ.

Turning to `OO` [H2O2], the “ability of attached EBs to give rise to all lineages” value in the data set with EBs is “compromised”.
For the compound `C[S+](C)[O-]` [DMSO], in the data set with EBs, the “degeneration, attachment and outgrowth of EBs in implantation model” value is “degeneration of the EBs, and they failed to attach and outgrow”; the “ability of attached EBs to give rise to all lineages” value is recorded as “compromised”.
On to `C[C@@H](N)[C@H]1CC[C@H](C(=O)Nc2ccncc2)CC1` [Y27632], for which, in the data set on EBs (day 4.5 EBs, 20 μM, 48 hrs exposure), the “attachment and outgrowth of spheroid cavitating/cystic EB in implantation model” value is “supportive/enhanced attachment; also recorded: attached and outgrown to a larger area”. Also, in the data set with EBs (four day old EBs on agarose and fibronectin coated surfaces, 20 μM, control attached from 4th day), the “attachment of EBs” value is listed as “enhanced attachment from day 2 onwards”. Also, in the data set on HUES 9 EB (setting [1]), the BRACHURY gene expression entry was “−”, the CDH1 gene expression entry was “+”, the CDX-2 gene expression result was “−” and the DLK-1 gene expression result is given as “−”. Also, in the data set with HUES 9 EB (setting [1]), the HOXD11 gene expression result was “+”, the HOXD12 gene expression entry is reported as “−”, the SDHD gene expression result is “−” and the TIMP3 gene expression result is recorded as “−”. Also, in the data set with HUES 9 EB (setting [1]), the hTERT gene expression result is listed as “−” and the p53 gene expression entry is “−”. Also, in the data set on HUES 9 EB (setting [2]), the BMP-2 gene expression entry is listed as “−”, the CD44 gene expression entry is recorded as “+”, the NOTCH gene expression result is on record as “+” and the OCT-4 gene expression result was “+”. Besides, in the data set on HUES 9 EB (setting [2]), the PGR gene expression result is on record as “+”, the PTEN gene expression result is “+”, the “TGF β gene expression” value is “+” and the TP73 gene expression entry is reported as “+”. Also, the “β-III TUBULIN gene expression” value in the data set on HUES 9 EB (setting [2]) is “+”.
As to `Nc1ncn([C@@H]2O[C@H](CO)[C@@H](O)[C@H]2O)c(=O)n1` [5-Azacytidine], in the data set on EBs, the “degeneration, attachment and outgrowth of EBs in implantation model” value is “degeneration of the EBs, and they failed to attach and outgrow”. Moreover, in the data set with HUES 9 EB (HUES 9 EB D 4.5 AZA, control +), the BRACHURY gene expression result was “−”, the CDH1 gene expression result is “−”, the CDH13 gene expression entry is “−” and the CDX2 gene expression result is listed as “−”. In the data set on HUES 9 EB (HUES 9 EB D 4.5 AZA, control +), the DLK1 gene expression result is “−”, the HOXD12 gene expression entry is given as “−”, the NANOG gene expression entry is reported as “−” and the SDHD gene expression result is “−”. Moreover, in the data set on HUES 9 EB (HUES 9 EB D 4.5 AZA, control +), the TIMP3 gene expression entry is listed as “−”, the TNFR gene expression result is “−”, the hTERT gene expression result was “−” and the p53 gene expression entry is “−”. Further, in the data set on HUES 9 EB (HUES 9 EB D 4.5 AZA, control −), the BMP-2 gene expression entry was “−”, the CD44 gene expression entry is reported as “−”, the DPYS gene expression entry was “+” and the H19 gene expression entry is reported as “−”. Moreover, in the data set on HUES 9 EB (HUES 9 EB D 4.5 AZA, control −), the OCT-4 gene expression entry is on record as “+”, the PTEN gene expression result was “−” and the “β-III TUBULIN gene expression” value was “−”.

Values taken from patent publication US20100248229A1, “INVITRO HUMAN EMBRYONIC MODEL AND A METHOD THEREOF” (Stempeutics Research Private Limited, priority 2007, published 2010).
